Data taken from PMC6372667 (Experimental & Molecular Medicine, 2019).
Where two headings read alike, the source gives them in different places.

Legend:
[1] = tested on: C6 rat glial cells; assay: MTT cytotoxicity assay, C6; format: cell-based; conditions: 24 h
Procedure: (§1) Cytotoxicity was assessed using the MTT assay. Briefly, the cells were seeded into a 96-well plate at a density of 1×10^5 cells per well in 100 µL of corresponding media and incubated at 37 °C in an incubator under 5% CO2 tension for 24 h. The culture media were then replaced with 100 µL of fresh serum-free media in the presence of varied concentrations of pterosin derivatives, and cells were incubated for an additional 24 h. The control was treated with an equal amount of DMSO present in the assay for a 5 mM concentration. Then, 100 µL of MTT solution (0.5 mg/mL in Phosphate Buffered Saline (PBS)) was added to each culture. To measure the proportion of surviving cells, the media were replaced with 100 µL of DMSO 2 h after the administration of MTT solution. The absorbance was measured at 570 nm using a spectrophotometric plate reader (Molecular Devices, Sunnyvale, CA, USA).

[2] = molecular target: T1, BACE1 (human recombinant β-secretase) (Homo sapiens, UniProt P56817); assay: In vitro BACE1 FRET enzyme assay; format: biochemical; conditions: mean ± S.D. of three experiments
T1 sequence (P56817 46-501): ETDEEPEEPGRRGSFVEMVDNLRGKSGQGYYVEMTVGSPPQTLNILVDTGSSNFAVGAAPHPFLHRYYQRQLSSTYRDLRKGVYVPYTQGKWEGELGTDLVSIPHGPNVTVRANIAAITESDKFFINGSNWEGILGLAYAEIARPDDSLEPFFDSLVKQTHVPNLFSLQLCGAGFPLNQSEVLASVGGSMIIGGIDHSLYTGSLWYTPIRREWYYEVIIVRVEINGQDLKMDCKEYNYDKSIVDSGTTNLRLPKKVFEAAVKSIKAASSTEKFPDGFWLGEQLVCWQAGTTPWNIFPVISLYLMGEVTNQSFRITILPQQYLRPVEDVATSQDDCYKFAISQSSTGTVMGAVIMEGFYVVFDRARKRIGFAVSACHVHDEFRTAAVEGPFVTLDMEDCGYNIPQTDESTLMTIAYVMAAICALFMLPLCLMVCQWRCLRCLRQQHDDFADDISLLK
Text: BACE1 (human recombinant β-secretase) ([…]) and the BACE1 FRET (fluorescence resonance energy transfer) assay kit Red were purchased from ThermoFisher Scientific (P2985; Waltham, MA, USA). […] For the cell culture experiment, Dulbecco’s modified Eagle’s medium (DMEM), Opti-MEM, fetal bovine serum (FBS), and penicillin/streptomycin were obtained from Capricorn Scientific (Ebsdorfergrund, Germany). β-secretase inhibitor III (β-SI) was purchased from Calbiochem (Darmstadt, Germany). The protease inhibitor mixture (a mixture of AEBSF, pepstatin A, E-64, bestain, leupeptin, and aprotinin) was purchased from Sigma-Aldrich (St. Louis, MO, USA). Enzyme-linked immunosorbent assay (ELISA) kits for Aβ40 and Aβ42 were obtained from IBL (Kunma, Japan). All chemicals and solvents used were reagent grade, purchased from commercial sources, and used as received.
The BACE1 FRET assay was carried out according to the manufacturer’s instructions with slight modifications as previously described. The assay was performed in a […] black plate using a multi-pipette.

[3] = tested on: SH-SY5Y, C6, NIH3T3 and B16F10 cell lines; assay: MTT cytotoxicity assay, all cell lines tested; format: cell-based
Procedure: as §1

[4] = in vitro; format: in vitro ADME; conditions: for BBB permeation class: classified by Pe, given in words
Procedure: PAMPA (parallel artificial membrane permeation assay) was used as a high-throughput assay to predict BBB permeation. Porcine polar brain lipid (PBL) was used as an artificial membrane to predict BBB permeation. Initially, the test compound was dissolved in DMSO at 5 mg/mL. This compound stock solution (10 µL) was diluted 200-fold in a universal buffer at pH 7.4 and mixed with a multi 8-channel pipette to obtain the secondary stock solution (final concentration 25 µg/mL). The secondary stock solution (200 µL) was placed in the donor wells. The filter membrane was coated with PBL in dodecane (4 mL volume of 20 mg/mL PBL in dodecane), and 5 µL of BBB-1 lipid solution was spread on PBL by pipette. The acceptor well was filled with […] of Acceptor Sink Buffer. The acceptor filter plate was cautiously positioned on the donor plate to assemble a “sandwich” (comprising an aqueous acceptor, artificial lipid membrane and aqueous donor with test compound on the top, middle and bottom, respectively). The test compound diffuses from the donor well to the acceptor well through the lipid membrane. After 4 h of incubation at pH 7.4 and 25 °C, the concentration of the compound in the acceptor, donor, reference and blank wells was estimated with a UV plate reader, Epoch Microplate Spectrophotometer (BioTek Instruments, Inc., Winooski, VT, USA). […] Samples were analyzed in quadruplets, and the average of the four runs was reported. To monitor the consistency of the analysis set, quality control standards were run with each sample set.
PAMPA-BBB, an in vitro artificial membrane permeability assay for the BBB, is one of the most reliable physicochemical screening tools in the early stage discovery of CNS-targeted drugs. The PAMPA-BBB system models the transcellular passive diffusion of chemicals across the BBB and measures strictly passive transport mechanisms via an artificial lipid membrane on effective permeability (Pe, cm/s).

[5] = tested on: Mouse neuroblastoma N2a cells stably overexpressing the human APP Swedish mutation (APPswe); assay: Aβ40/Aβ42 sandwich ELISA of conditioned media of APPswe neuroblastoma cells; format: cell-based
Procedure: Mouse neuroblastoma N2a cells stably overexpressing the human APP Swedish mutation (APPswe) were kindly provided by Dr. Takeshi Iwatsubo (The University of Tokyo). […] To analyze the effect of (2R)-pterosin B or (2R,3R)-pteroside C on APP metabolites, APPswe-containing neuroblastoma cells were cultured up to confluency in DMEM that contained 10 mM butyric acid to drive protein expression in the presence of 12, 60, 250, and 500 μM of (2R)-pterosin B or (2R,3R)-pteroside C for 24 h. β-SI (10 µM) was used as a positive control. The negative control included cells cultured in the absence of test compounds. […] Conditioned medium was collected in 0.5 mM phenylmethylsulfonyl fluoride and subjected to ELISA for the 40-residue peptide Aβ (1–40) (Aβ40) or the 42-residue Aβ (1–42) (Aβ42).
Aβ40 and Aβ42 ELISA was performed according to the manufacturer’s instructions. The assay was conducted in a microplate coated with anti-human Aβ35-40 mouse IgG (1A10) or anti-human Aβ38-42 mouse IgG (44A3), respectively. The microplate was added with 100 μL conditioned media, incubated overnight at 4 °C, and then washed with washing buffer. Horseradish peroxidase-conjugated anti-human Aβ11-28 mouse IgG (82E1) was added into each well, incubated at 4 °C for 1 h, and washed with washing buffer. 3,3′,5,5′-Tetramethylbenzidine as a chromogenic substrate was added to each well and incubated for 30 min. The reaction was stopped by the addition of 100 μL stop solution, and the absorbance at 450 nm was measured using a model 680 microplate reader (Bio-Rad, Hercules, CA).

[6] = molecular target: T1, BACE1 (human recombinant β-secretase); assay: Kinetic analysis of BACE1 inhibition (Dixon and Lineweaver−Burk plots); format: biochemical; conditions: for Inhibition type BACE1: Dixon and Lineweaver−Burk plots
Procedure: The Ki was determined by interpretation of the Dixon plot, with the value of the x-axis intercept taken as −Ki.
Dixon plots for BACE1 inhibition by pterosin derivatives.
Dixon plots for BACE1 inhibition by pteroside derivatives.

| SMILES | LD50 Based on MTT Assay, C6 [1] | IC50 [2] [µM] | LD50, cell lines tested [3] | Pe fold higher than verapamil ([4]; PAMPA-BBB) [fold] | BBB permeation class ([4]; PAMPA-BBB) | Pe fold higher than quercetin ([4]; from log Pe −4.22 versus literature log Pe of quercetin) | Pe fold higher than berberine ([4]; from log Pe −4.22 versus log Pe −5.8 of berberine) | Papp at 4 h, 25 µg/mL ([4]; pig, PAMPA, 4 h, pH 7.4, 25 °C, mean ± SD of quadruple experiments, read-out: PAMPA-BBB permeability Pe) [×10⁻⁶ cm/s] | Secretion of Aβ peptides, effect ([5]; 500 μM) | Secreted Aβ40 peptides, effect ([5]; 500 µM, 24 h) | Reduction of Aβ40 peptide secreted into media ([5]; 500 μM, 24 h, P < 0.01) | Ki [6] [µM] | Inhibition type BACE1 [6] | Secreted Aβ42 peptide, effect ([5]; 500 µM, 24 h, P < 0.05) | Ki ([6]; determined by Dixon plot, read-out: Ki BACE1) [µM] |
| --- | --- | --- | --- | --- | --- | --- | --- | --- | --- | --- | --- | --- | --- | --- | --- |
| Cc1cc2c(c(C)c1CCO)C(=O)[C@H](C)C2 [(2R)-Pterosin B, (2R)-pterosin B] | >5,000 µM | 29.6 ± 3.5 | above 5 mM | 1.7 | high BBB permeation | approximately 600 fold | approximately 37 fold | 60.3 ± 9.8 | significantly decreased | significantly decreased | up to 50% | 38.3 | Noncompetitive | – | – |
| Cc1cc2c(c(C)c1CCOC1OC(CO)C(O)C(O)C1O)C(=O)C(C)C2O [(2R,3R)-Pteroside C, (2R,3R)-pteroside C] | >5,000 µM | 9.74 ± 1.9 | above 5 mM | – | very low BBB permeability | – | – | – | significantly decreased | – | – | – | Mixed-type | significantly decreased | 12.6 |
